Test results: PubChem BioAssay (NCI)
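Test compounds were applied to cells in 96-well plates for 48 hours at 5 doses. The concentration for 50% growth inhibition is given as GI50. The concentration for full growth arrest is given as TGI.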

What was measured:
Assay in all cases: NCI-60 cell line screen, 48 h
[1] = system: ACHN renal
[2] = system: CCRF-CEM leukemia
[3] = system: COLO 205 colon
[4] = system: NCI-H23 lung
[5] = system: OVCAR-8 ovarian
[6] = system: SK-MEL-5 melanoma
[7] = system: SN12C renal
[8] = system: SNB-19 CNS
[9] = system: MDA-MB-435
[10] = system: T-47D breast

| SMILES | TGI [1] | TGI [2] | TGI [3] | TGI [4] | TGI [5] | TGI [6] | TGI [7] | TGI [8] | TGI [9] | TGI [10] | GI50 [1] | GI50 [3] | GI50 [9] | GI50 [4] | GI50 [5] | GI50 [6] | GI50 [7] | GI50 [8] | GI50 [10] | GI50 [2] |
| --- | --- | --- | --- | --- | --- | --- | --- | --- | --- | --- | --- | --- | --- | --- | --- | --- | --- | --- | --- | --- |
| Cc1cc([N+](=O)[O-])c(S(=O)(=O)c2ccccc2)c([N+](=O)[O-])c1 | 33.4 µM | > 28 µM | 24 µM | 26.2 µM | > 62.5 µM | 27.8 µM | 18.3 µM | 32.9 µM |  |  |  |  |  |  |  |  |  |  |  |  |
| COc1cc(O)c(C(C)=O)c(O)c1 | > 100 µM |  | > 100 µM | > 100 µM | > 100 µM | > 100 µM | > 100 µM |  | > 100 µM | > 100 µM |  |  |  |  |  |  |  |  |  |  |
| Cc1cc(=O)oc2cc(OCCn3c(C)nn(-c4ccc(Cl)cc4)c3=O)ccc12 | > 100 µM |  | 7.34 µM | > 100 µM | > 100 µM | > 100 µM | > 100 µM | > 100 µM | 0.837 µM | > 100 µM | 5.59 µM | 2.39 µM | 0.269 µM | 2.83 µM | 5.17 µM | 0.848 µM | 5.54 µM | 5.37 µM | 7.55 µM |  |
| NS(=O)(=O)c1ccc(NC(=O)c2cccn3c(=O)c4ccccc4nc23)cc1 | > 100 µM | > 100 µM | > 100 µM | > 100 µM | > 100 µM | > 100 µM | > 100 µM | > 100 µM |  |  |  |  |  |  |  |  |  |  |  |  |
| O=C(Nc1cc(S(=O)(=O)c2ccc(Cl)cc2)ccc1Cl)c1cc(I)cc(I)c1O | 36 µM |  | 29.6 µM | 33.9 µM | 41.7 µM | 28.3 µM | 34.8 µM | 29.3 µM | 37.8 µM |  | 17.1 µM | 15.8 µM | 17.4 µM | 16.5 µM | 18.6 µM | 14.9 µM | 16.1 µM | 14.9 µM |  |  |
| C/C(=N\n1c(N)c(C#N)c(-c2ccc(Cl)cc2)c(C#N)c1=O)c1ccncc1 | 49.5 µM | > 100 µM | > 100 µM | 45.7 µM | 12.4 µM | > 100 µM | 41.1 µM | > 100 µM |  | 85.3 µM | 20.9 µM | > 100 µM |  | 11 µM | 2.95 µM | 21.8 µM | 9.88 µM | 10.6 µM | 7.81 µM | > 100 µM |
| CCN(CC)CCOc1ccc(/C=C2\CC3C4CC=C5C[C@@H](OC(C)=O)CC[C@]5(C)C4CC[C@]3(C)C2=O)cc1OC (stereo not given in full) | 21.5 µM |  | > 100 µM | 49.5 µM | 49 µM |  | 30.1 µM | > 100 µM | 3.58 µM | > 100 µM | 9.84 µM | 15.9 µM | 1.78 µM | 12.4 µM | 20 µM |  | 12.6 µM | 47.1 µM | 38.2 µM |  |
| C=CC1=CC(C)C[C@]1(O)C(=O)OC (stereo not given in full) |  |  |  |  |  | > 100 µM |  |  |  |  | > 100 µM | > 100 µM |  | > 100 µM | > 100 µM |  | > 100 µM | > 100 µM |  | > 100 µM |
| COC(=O)c1cc2c3c(ccc2[nH]1)N(C(=O)c1cc2c4c(ccc2[nH]1)N(C(=O)c1cc2c5c(ccc2[nH]1)N(C(N)=O)CC5)CC4)CC3 | > 27.8 µM | > 51.2 µM | > 36 µM | > 100 µM | > 30.8 µM | 8.68 µM | 49.4 µM | 12.6 µM |  |  |  |  |  |  |  |  |  |  |  |  |
| c1cnc2[nH]cc(-c3csc(-c4cn(CCCN5CCCCC5)c5ccccc45)n3)c2c1 | 3.05 µM |  |  |  |  |  | 3.22 µM |  | 3.09 µM |  | 1.66 µM |  | 1.67 µM |  |  |  | 1.68 µM |  |  |  |
| O=C(/C=C/c1cn(-c2ccccc2)nc1-c1ccc([N+](=O)[O-])cc1)c1ccc(Cl)cc1 | > 43.6 µM |  |  | > 100 µM | > 100 µM | > 100 µM | > 100 µM | 27 µM |  | > 100 µM | 3.64 µM |  |  | 3.67 µM | 6.33 µM |  | 4.54 µM | 4.12 µM | 1.22 µM |  |
| CCCCCCCCCC(=O)Oc1cccc2onc(C)c12 | > 100 µM | > 100 µM | > 100 µM | > 100 µM | > 100 µM | > 100 µM | > 100 µM | > 100 µM |  |  |  |  |  |  |  |  |  |  |  |  |
| CC[P+]1(CC)CCCC1 | > 100 µM | > 100 µM | > 100 µM | > 100 µM | > 100 µM | > 100 µM | > 100 µM | > 100 µM |  |  |  |  |  |  |  |  |  |  |  |  |
| CC1(C)OC(COCCOCCCCCO)C(COCCOCCCCCO)O1 (stereo not given) | > 100 µM |  | > 100 µM | > 100 µM | > 100 µM | > 100 µM | > 100 µM | > 100 µM |  |  |  |  |  |  |  |  |  |  |  |  |
| COc1ccc(-c2nc3c(c(=O)n2C(C)=O)C(c2ccc(Cl)cc2)c2sc4c(Cl)cccc4c2O3)cc1 (stereo not given) | 4.51 µM | 6.28 µM | 1.32 µM | 2.09 µM | 2.37 µM | 1.11 µM | 2.23 µM | 2.01 µM |  | 2.2 µM | 0.897 µM | 0.355 µM |  | 0.343 µM | 0.5 µM | 0.297 µM | 0.64 µM | 0.413 µM | 0.326 µM | 0.462 µM |
| c1ccc(OCCSCCCCCCCCCCSCCOc2ccccc2)cc1 | > 100 µM | > 100 µM | > 100 µM | > 100 µM | > 100 µM | > 100 µM | > 100 µM | > 100 µM |  |  |  |  |  |  |  |  |  |  |  |  |
| CC1=C(C(=O)CC(=O)C(=O)NC2C3CC4CC(C3)CC2C4)Sc2ccccc2N1 (stereo not given) | > 100 µM | > 87.7 µM | > 31.6 µM | > 100 µM | > 100 µM | > 100 µM | > 100 µM | > 100 µM |  |  |  |  |  |  |  |  |  |  |  |  |
| COC(=O)C1(F)C(=O)NC(=O)NC1OC (stereo not given) | > 100 µM | > 100 µM | > 100 µM | > 100 µM | > 100 µM | > 100 µM | > 100 µM | > 100 µM |  |  |  |  |  |  |  |  |  |  |  |  |
| Fc1c[c-]c(-c2ccccn2)c(F)c1.[CH3-].[Pt+2].c1ccc(P(C[PH+](c2ccccc2)c2ccccc2)c2ccccc2)cc1 | 1.49 µM |  | 2.07 µM | 1.99 µM | 5.76 µM | 1.37 µM | 1.77 µM | 1.32 µM | 2.08 µM | 3.27 µM | 0.792 µM | 0.485 µM | 0.795 µM | 0.563 µM | 0.63 µM | 0.714 µM | 0.502 µM | 0.403 µM | 0.474 µM |  |
